Data taken from paper doi:10.1101/366146v2 (biorxiv, 2018).
Converted amounts (≈) assume the structure as drawn. Where two headings read alike, the source gives them in different places.

Experiments:
Test in all cases: microbe, parasite or virus in culture
Parameters in all cases: species or system Enterobacteriaceae strains
C. freundii NDM-1 [1] = conditions: Citrobacter freundii, NDM1, read-out: MIC
K. pneumoniae IMP-8 [2] = conditions: Klebsiella pneumoniae, IMP8, read-out: MIC
E. coli VIM-1 [3] = conditions: Escherichia coli, VIM1, read-out: MIC
K. pneumoniae OXA-48 [4] = conditions: Klebsiella pneumoniae, OXA48, read-out: MIC
[5] = tested on: K. pneumoniae ATCC BAA 1706; conditions: Klebsiella pneumoniae, BAA1706, read-out: MIC
E. coli NDM-1 [6] = conditions: Escherichia coli, NDM1, read-out: MIC
P. stuartii NDM-1 [7] = conditions: Providencia stuartii, NDM1, read-out: MIC
E. cloacae VIM-1 [8] = conditions: Enterobacter cloacae, VIM1, read-out: MIC
E. coli VIM-2 [9] = conditions: Escherichia coli, VIM2, read-out: MIC
K. pneumoniae VIM-1 [10] = conditions: Klebsiella pneumoniae, VIM1, read-out: MIC
P. rettgeri NDM-1 [11] = conditions: Providencia rettgeri, NDM1, read-out: MIC
E. cloacae NDM-1 [12] = conditions: Enterobacter cloacae, NDM1, read-out: MIC
E. coli NDM-4 [13] = conditions: Escherichia coli, NDM4, read-out: MIC
E. cloacae IMP-1 [14] = conditions: Enterobacter cloacae, IMP1, read-out: MIC
E. coli IMP-1 [15] = conditions: Escherichia coli, IMP1, read-out: MIC
E. coli ATCC 25922 [16] = conditions: Escherichia coli, ATCC25922, read-out: MIC
E. cloacae IMP-8 [17] = conditions: Enterobacter cloacae, IMP8, read-out: MIC
K. pneumoniae IMP-1 [18] = conditions: Klebsiella pneumoniae, IMP1, read-out: MIC
E. cloacae IMP-1 [19] = conditions: Enterobacter cloacae, IMP1, read-out: MIC; remark: listed apart in the source
[20] = tested on: K. pneumoniae ATCC BAA 1706; conditions: Klebsiella pneumoniae, BAA1706, read-out: MIC; remark: listed apart in the source
P. stuartii NDM-1 [21] = conditions: Providencia stuartii, NDM1, read-out: MIC; remark: listed apart in the source
E. cloacae NDM-1 [22] = conditions: Enterobacter cloacae, NDM1, read-out: MIC; remark: listed apart in the source
K. pneumoniae OXA-48 [23] = conditions: Klebsiella pneumoniae, OXA48, read-out: MIC; remark: listed apart in the source
K. pneumoniae VIM-1 [24] = conditions: Klebsiella pneumoniae, VIM1, read-out: MIC; remark: listed apart in the source
E. cloacae IMP-8 [25] = conditions: Enterobacter cloacae, IMP8, read-out: MIC; remark: listed apart in the source
E. coli NDM-1 [26] = conditions: Escherichia coli, NDM1, read-out: MIC; remark: listed apart in the source
P. rettgeri NDM-1 [27] = conditions: Providencia rettgeri, NDM1, read-out: MIC; remark: listed apart in the source
E. cloacae VIM-1 [28] = conditions: Enterobacter cloacae, VIM1, read-out: MIC; remark: listed apart in the source
E. coli ATCC 25922 [29] = conditions: Escherichia coli, ATCC25922, read-out: MIC; remark: listed apart in the source
K. pneumoniae IMP-1 [30] = conditions: Klebsiella pneumoniae, IMP1, read-out: MIC; remark: listed apart in the source
E. coli VIM-1 [31] = conditions: Escherichia coli, VIM1, read-out: MIC; remark: listed apart in the source
E. coli VIM-2 [32] = conditions: Escherichia coli, VIM2, read-out: MIC; remark: listed apart in the source
E. coli NDM-4 [33] = conditions: Escherichia coli, NDM4, read-out: MIC; remark: listed apart in the source
C. freundii NDM-1 [34] = conditions: Citrobacter freundii, NDM1, read-out: MIC; remark: listed apart in the source
K. pneumoniae IMP-8 [35] = conditions: Klebsiella pneumoniae, IMP8, read-out: MIC; remark: listed apart in the source
E. coli IMP-1 [36] = conditions: Escherichia coli, IMP1, read-out: MIC; remark: listed apart in the source

C[C@@H](O)[C@H]1C(=O)N2C(C(=O)O)=C(S[C@@H]3CN[C@H](C(=O)N(C)C)C3)[C@H](C)[C@H]12 [MEM, meropenem]
MIC (C. freundii NDM-1 [1]): 8 µg/mL (≈ 20.9 µM) | MIC (K. pneumoniae IMP-8 [2]): 16 µg/mL (≈ 41.7 µM) | MIC (E. coli VIM-1 [3]): 32 µg/mL (≈ 83.4 µM) | MIC (K. pneumoniae OXA-48 [4]): 8 µg/mL (≈ 20.9 µM) | MIC [5]: 0.5 µg/mL (≈ 1.3 µM) | MIC (E. coli NDM-1 [6]): 128 µg/mL (≈ 334 µM) | MIC (P. stuartii NDM-1 [7]): 16 µg/mL (≈ 41.7 µM) | MIC (E. cloacae VIM-1 [8]): 8 µg/mL (≈ 20.9 µM) | MIC (E. coli VIM-2 [9]): 8 µg/mL (≈ 20.9 µM) | MIC (K. pneumoniae VIM-1 [10]): 32 µg/mL (≈ 83.4 µM) | MIC (P. rettgeri NDM-1 [11]): 64 µg/mL (≈ 167 µM) | MIC (E. cloacae NDM-1 [12]): 16 µg/mL (≈ 41.7 µM) | MIC (E. coli NDM-4 [13]): 128 µg/mL (≈ 334 µM) | MIC (E. cloacae IMP-1 [14]): 32 µg/mL (≈ 83.4 µM) | MIC (E. coli IMP-1 [15]): 16 µg/mL (≈ 41.7 µM) | MIC (E. coli ATCC 25922 [16]): 0.03 µg/mL (≈ 0.0782 µM) | MIC (E. cloacae IMP-8 [17]): 8 µg/mL (≈ 20.9 µM) | MIC (K. pneumoniae IMP-1 [18]): 32 µg/mL (≈ 83.4 µM)

C1CNCCNCCN1 [compound 1, 1,4,7-triazacyclononane]
MIC (E. cloacae IMP-1 [19]): 512 µg/mL (≈ 3960 µM) | MIC [20]: 1020 µg/mL (≈ 7930 µM) | MIC (P. stuartii NDM-1 [21]): > 1020 µg/mL | MIC (E. cloacae NDM-1 [22]): > 1020 µg/mL | MIC (K. pneumoniae OXA-48 [23]): 128 µg/mL (≈ 991 µM) | MIC (K. pneumoniae VIM-1 [24]): 512 µg/mL (≈ 3960 µM) | MIC (E. cloacae IMP-8 [25]): 512 µg/mL (≈ 3960 µM) | MIC (E. coli NDM-1 [26]): 1020 µg/mL (≈ 7930 µM) | MIC (P. rettgeri NDM-1 [27]): > 1020 µg/mL | MIC (E. cloacae VIM-1 [28]): 128 µg/mL (≈ 991 µM) | MIC (E. coli ATCC 25922 [29]): 1020 µg/mL (≈ 7930 µM) | MIC (K. pneumoniae IMP-1 [30]): 512 µg/mL (≈ 3960 µM) | MIC (E. coli VIM-1 [31]): 1020 µg/mL (≈ 7930 µM) | MIC (E. coli VIM-2 [32]): 128 µg/mL (≈ 991 µM) | MIC (E. coli NDM-4 [33]): 1020 µg/mL (≈ 7930 µM) | MIC (C. freundii NDM-1 [34]): 1020 µg/mL (≈ 7930 µM) | MIC (K. pneumoniae IMP-8 [35]): 1020 µg/mL (≈ 7930 µM) | MIC (E. coli IMP-1 [36]): 512 µg/mL (≈ 3960 µM)
